pIC50: −log10 of the molar value. Where two headings read alike, the source gives them in different places.
Experiments:
[1] = system: T cells (splenic T cell proliferation, co-cultured spleen cells from two strains of mice); assay: Mixed lymphocyte response (MLR); type: cell-based; conditions: Mus musculus, Anti-inflammatory/Anti-proliferative Activity
From the text: i Mixed lymphocyte response (MLR).
(§1) The MLR assay measures the effects of a study compound on the activation and antigen presentation of T-lymphocytes, therefore determining immunomodulatory properties. The mouse spleen cell mitogen-induced blastogenesis and the BUD-8 human fibroblast proliferation assays measure the effects of the compounds of the present invention on cellular proliferation of cells involved in the pathogenesis of autoimmune diseases. These two assays are appropriate as screens to ascertain anti-inflammatory and/or autoimmune diseases.
The MLR is a classical assay used to measure T cell function by studying the proliferation response of T cells which are activated in vitro by genetically disparate stimulator cells. This is accomplished by co-culturing spleen cells from two different strains of mice. Splenic T cell proliferation occurs as a result of cellular activation signals generated by the ongoing cellular interactions.
(§2) The detailed experimental procedure for the above-mentioned assays is described in detail in U.S. Pat. Nos. 5,360,790 and 5,367,062 incorporated herein by reference.

[2] = system: SK-MEL-28 Melanoma Xenografts; assay: Early Stage SK-MEL-28 Melanoma Xenografts; conditions: for Drug Deaths: of 6 mice; for Opt. % T/C: >40 considered inactive
Experimental: (§3) In this in vivo model Murine or human tumor fragments (30 mg) are implanted subcutaneously into the axillary region of pathogen-free immunocompetent or immunodefficient mice, respectively, on experimental day 0. Test agent treatment is initiated either on the day which is historically associated with the start of tumor growth, or when the tumor is palpable. Tumor size and body weights are obtained approximately two times per week. Tumor weights are calculated from caliper measurements of tumor dimensions in mm using the formula for a prolate ellipsoid:
(§4) (L×W^2)/2; where L is the longer of the 2 measurements
(§5) Generally, tumor size is monitored until an upper weight limit of 500 mg is attained.

[3] = system: UACC-62 Melanoma Xenografts; assay: Early Stage Subcutaneous Tumor Model UACC-62 Melanoma Xenografts; conditions: for Drug Deaths: of 6 mice; for Opt. % T/C: >40 considered inactive
Experimental: as §3, §4, §5

[4] = system: human tumor cell lines (approximately 60); assay: NCI in vitro human tumor cell line screen (SRB), mean graph midpoints over all cell lines; type: cell-based; conditions: for CC50 / GI50 / IC (TGI): Homo sapiens, average of all cell lines, 48 h; for CC50: 50% cell death (-50% growth), read-out: log10 LC50 mean graph midpoint (converted); for IC (TGI): total cell growth inhibition (0% growth), read-out: log10 TGI mean graph midpoint (converted); for in vitro activity in words: various in vitro cell lines, IC50, average GI50, mean graph pattern
Experimental: In performing in vitro human tumor cell line assay, a total of approximately 60 human tumor cell lines derived from ten cancer types (leukemia, non-small cell lung cancer, small cell lung cancer, colon cancer, CNS cancer, melanoma, ovarian cancer, renal cancer, breast cancer and prostate cancer) were used in this assay. Compounds were tested at different concentrations against every cell line. All lines are inoculated into a series of standard 96-well microtiter plates on day 0, in the majority of cases at 20,000 cells/well, and then pre-incubated in the absence of testing agent for 24 hours. A testing agent was then added in five 10-fold dilutions and incubated for a further period of 48 hours. Following this, the cells are fixed in situ, washed, and dried. Sulforhodamine B (SRB, protein binding dye) is added, followed by further washing and drying of the stained adherent cell mass. The bound stain is solubilized and measured spectrophotometrically on an automatic plate reader.
For each compound, dose response curves for each cell line were measured with five different drug concentrations, and the concentration causing 50% cell growth inhibition (GI50), total cell growth inhibition (TGI, 0% growth), and 50% cell death (LC50, -50% growth) compared with the control was calculated. […] In these graphs, the mean logarithmic value of GI50 in all cell lines for each tested compound is used as the midpoint of that bar graph.

[5] = system: COLO 205 Colon Tumor Xenografts; assay: Early Stage SC COLO 205 Colon Tumor Xenografts; conditions: for Drug Deaths: of 6 mice; for Opt. % T/C: >40 considered inactive
Experimental: as §3, §4, §5

[6] = system: mouse spleen cell (T-lymphocyte); assay: Concanavalin A (CON-A) assay, mouse spleen cell mitogen induced blastogenesis; type: cell-based; conditions: Anti-inflammatory/Anti-proliferative Activity
From the text: iii Concanavalin A assay (the mouse spleen cell mitogen induced blastogenesis).
as §1
It is known that the induction and maintenance of most inflammatory diseases are typically due to the unrestricted activity of T-lymphocytes. Therefore, it is advantageous to identify compounds which are modulators of T-lymphocyte activity for eventual use in the regulation of inflammatory diseases, including acquired immune deficiency syndrome, psoriasis, systemic lupus, erythromatosus, and rheumatoid arthritis.
as §2

BUD-8 human fibroblast = assay: BUD-8 human cell line fibroblast proliferation assay (FIB.); type: cell-based; conditions: Anti-inflammatory/Anti-proliferative Activity
From the text: ii BUD-8 human cell line fibroblast proliferation assay.
as §1
The skin cell fibroblast line, BUD-8, was originally derived from the normal skin of a person and can now be obtained from the American Type Culture Collection, Rockville, Md.
as §2

P388 Murine Leukemia = P388 Murine Leukemia in vivo
Experimental: Two of the compounds of the present invention (Ic and Im) were also tested against P388 Murine Leukemia.

[7] = 130 mg/kg/dose IP QD × 5, day 3
[8] = 50% cell growth inhibition, read-out: GI50 (average)
[9] = log10 of molar concentration, read-out: log10 I50 (log10 GI50 mean graph midpoint) (converted)
[10] = 130 mg/kg/dose IP Q4D × 3, day 7
[11] = Ic 60, 40 and 27 mg/kg/dose, Im 120, 80 and 54 mg/kg/dose

For `CCCCCCCCCCCCOC[C@@]12O[C@@H](C)[C@@H](OCCN3CCCCC3)[C@@H]1OC(C)(C)O2` [Im, 2,3-O-Isopropylidene-6-deoxy-1-O-dodecyl-4-O-ethylpiperidinyl-α-L-xylo-2-hexulofuranose], the pIC50 [1] was over 6.00, the “Drug Deaths” value ([2]; 54 mg/kg/dose IP QD × 5, day 3) was 1 and the “Opt. % T/C” value ([2]; 54 mg/kg/dose IP QD × 5, day 3, optimum on day 16) was 47%. For the same compound, the “Drug Deaths” value ([2]; 90 mg/kg/dose IP QD × 5, day 3) was 2, the “Opt. % T/C” value [2, 7] was “Toxic” and the “Drug Deaths” value [2, 7] was 5. The “Opt. % T/C” value ([2]; Im 90 mg/kg/dose IP QD × 5, day 3, optimum on day 9) was 49%, the “Drug Deaths” value ([3]; 54 mg/kg/dose IP Q4D × 3, day 6) was 0 and the “Opt. % T/C” value ([3]; 54 mg/kg/dose IP Q4D × 3, day 6, optimum on day 9) was 51%. The “Drug Deaths” value ([3]; 90 mg/kg/dose IP Q4D × 3, day 6) was 0, the “Opt. % T/C” value ([3]; 90 mg/kg/dose IP Q4D × 3, day 6, optimum on day 16) was 44% and the “Drug Deaths” value ([3]; 130 mg/kg/dose IP Q4D × 3, day 6) was 1. For the same compound, the “Opt. % T/C” value ([3]; 130 mg/kg/dose IP Q4D × 3, day 6, optimum on day 16) was 42%, the CC50 [4] was 50.1 µM and the GI50 [4, 8] was 20.2 µM. For the same compound, the GI50 [4, 9] was 9.77 µM, the IC (TGI) [4] was 22.9 µM and the “in vitro activity in words” value [4] was “significant activity in various in vitro cell lines”. The “Drug Deaths” value ([5]; 54 mg/kg/dose IP Q4D × 3, day 7) was 0, the “Opt. % T/C” value ([5]; 54 mg/kg/dose IP Q4D × 3, day 7, optimum on day 36) was 44% and the “Drug Deaths” value ([5]; 90 mg/kg/dose IP Q4D × 3, day 7) was 0. The “Opt. % T/C” value [5, 10] was “Toxic”, the “Drug Deaths” value [5, 10] was 4 and the “Opt. % T/C” value ([5]; Im 90 mg/kg/dose IP Q4D × 3, day 7, optimum on day 29) was 45%. The pIC50 [6] was 5.13, the pIC50 (BUD-8 human fibroblast) was 5.44 and the antitumor activity (P388 Murine Leukemia; [11]) was “only slight antitumor activity”. For the same compound, the toxicity (P388 Murine Leukemia; [11]) was “toxic at the higher dose levels” and the maximally tolerated dose (P388 Murine Leukemia; mouse, in vivo) was “a maximally tolerated dose was not achieved”.
`CCCCCCCCCCCCOC[C@@]12O[C@@H](CN3CCCC3)[C@@H](O)[C@@H]1OC(C)(C)O2` [Ia, 2,3-O-Isopropylidene-6-deoxy-6-(1-pyrrolidinyl)-1-O-dodecyl-α-L-xylo-2-hexulofuranose] gave a pIC50 [1] of over 6.00, a CC50 [4] of 13.2 µM and a GI50 [4, 8] of 4.21 µM. For the same compound, the GI50 [4, 9] was 0.204 µM, the IC (TGI) [4] was 4.37 µM and the pIC50 [6] was over 6.00. The pIC50 (BUD-8 human fibroblast) was over 5.52.
Compound `CCCCCCCCCCCCOC[C@@]12O[C@@H](CNCCN3CCOCC3)[C@@H](O)[C@@H]1OC(C)(C)O2` [If, 2,3-O-Isopropylidene-6-deoxy-6-aminoethylmorpholinyl-1-O-dodecyl-α-L-xylo-2-hexulofuranose] has a pIC50 [1] of over 6.00, a CC50 [4] of 11 µM and a GI50 [4, 8] of 4.68 µM. The GI50 [4, 9] was 2.34 µM, the IC (TGI) [4] was 5.13 µM and the pIC50 [6] was over 6.00. It also gave a pIC50 (BUD-8 human fibroblast) of over 6.00.
`CCCCCCCCCCCCOC[C@@]12O[C@@H](CN3CCCCCC3)[C@@H](OCCN3CCCCC3)[C@@H]1OC(C)(C)O2` [It, 2,3-O-Isopropylidene-6-deoxy-1-O-dodecyl-4-O-ethylpiperidinyl-6-hexamethyleneimino-α-L-xylo-2-hexulofuranose] gave a pIC50 [1] of over 6.00, a CC50 [4] of 36.3 µM and a GI50 [4, 8] of 2.38 µM. For the same compound, the GI50 [4, 9] was 1.35 µM, the IC (TGI) [4] was 7.76 µM and the pIC50 [6] was over 6.00. The pIC50 (BUD-8 human fibroblast) was over 6.00.
Compound `CCCCCCCCCCCCOC[C@@]12O[C@@H](CN3CCCCCC3)[C@@H](OCCN3CCCC3)[C@@H]1OC(C)(C)O2` [Ir, 2,3-O-Isopropylidene-6-deoxy-1-O-dodecyl-4-O-ethylpyrrolidinyl-6-hexamethyleneimino-α-L-xylo-2-hexulofuranose] has a pIC50 [1] of over 6.00, a CC50 [4] of 21.4 µM and a GI50 [4, 8] of 3.22 µM. For the same compound, the GI50 [4, 9] was 1.78 µM, the IC (TGI) [4] was 8.13 µM and the pIC50 [6] was over 6.00. For the same compound, the pIC50 (BUD-8 human fibroblast) was over 6.00.
`CCCCCCCCCCCCOC[C@@]12O[C@@H](CN3CCCCCC3)[C@@H](OCCCc3ccccc3)[C@@H]1OC(C)(C)O2` [Iw, 2,3-O-Isopropylidene-6-deoxy-1-O-dodecyl-4-O-phenylpropyl-6-hexamethyleneimino-α-L-xylo-2-hexulofuranose] gave a pIC50 [1] of over 6.00, a CC50 [4] of 16.6 µM and a GI50 [4, 8] of 4.18 µM. The GI50 [4, 9] was 2.45 µM, the IC (TGI) [4] was 10 µM and the pIC50 [6] was over 6.00. For the same compound, the pIC50 (BUD-8 human fibroblast) was over 6.00.
Work on `CCCCCCCCCCCCOC[C@@]12O[C@@H](C)[C@@H](OCCN3CCOCC3)[C@@H]1OC(C)(C)O2` [In, 2,3-O-Isopropylidene-6-deoxy-1-O-dodecyl-4-O-ethylmorpholinyl-α-L-xylo-2-hexulofuranose] yielded a pIC50 [1] of 5.42, a CC50 [4] of 91.2 µM and a GI50 [4, 8] of 74.9 µM. The GI50 [4, 9] was 36.3 µM, the IC (TGI) [4] was 72.4 µM and the pIC50 [6] was 4.98. For the same compound, the pIC50 (BUD-8 human fibroblast) was 4.89.
`CCCCCCCCCCCCOC[C@@]12O[C@@H](CNCCN3CCCCC3)[C@@H](O)[C@@H]1OC(C)(C)O2` [Ig, 2,3-O-Isopropylidene-6-deoxy-6-aminoethylpiperidinyl-1-O-dodecyl-α-L-xylo-2-hexulofuranose] showed a pIC50 [1] of over 6.00, a CC50 [4] of 20 µM and a GI50 [4, 8] of 6.8 µM. For the same compound, the GI50 [4, 9] was 3.39 µM, the IC (TGI) [4] was 7.76 µM and the pIC50 [6] was over 5.52. The pIC50 (BUD-8 human fibroblast) was over 5.52.
For `CCCCCCCCCCCCOC[C@@]12O[C@@H](CN3CCCCCC3)[C@@H](OCCN3CCOCC3)[C@@H]1OC(C)(C)O2` [Iv, 2,3-O-Isopropylidene-6-deoxy-1-O-dodecyl-4-O-ethylmorpholinyl-6-hexamethyleneimino-α-L-xylo-2-hexulofuranose], the pIC50 [1] was over 6.00, the CC50 [4] was 44.7 µM and the GI50 [4, 8] was 3.2 µM. It also gave a GI50 [4, 9] of 1.82 µM, an IC (TGI) [4] of 11.5 µM and a pIC50 [6] of over 6.00. The pIC50 (BUD-8 human fibroblast) was over 6.00.
In the case of `CCCCCCCCCCCCOC[C@@]12O[C@@H](C)[C@@H](OCCN3CCCC3)[C@@H]1OC(C)(C)O2` [Il, 2,3-O-Isopropylidene-6-deoxy-1-O-dodecyl-4-O-ethylpyrrolidinyl-α-L-xylo-2-hexulofuranose], the pIC50 [1] was over 6.00, the CC50 [4] was 28.8 µM and the GI50 [4, 8] was 8.68 µM. For the same compound, the GI50 [4, 9] was 4.07 µM, the IC (TGI) [4] was 10.5 µM and the “in vitro activity in words” value [4] was “significant activity”. It also gave a pIC50 [6] of over 6.00 and a pIC50 (BUD-8 human fibroblast) of over 6.00.
Compound `CCCCCCCCCCCCOC[C@@]12O[C@@H](CN3CCCCCC3)[C@@H](OCCCN3CCCCC3)[C@@H]1OC(C)(C)O2` [Iu, 2,3-O-Isopropylidene-6-deoxy-1-O-dodecyl-4-O-propylpiperidinyl-6-hexamethyleneimino-α-L-xylo-2-hexulofuranose] has a pIC50 [1] of over 6.00, a CC50 [4] of 28.8 µM and a GI50 [4, 8] of 0.86 µM. It also gave a GI50 [4, 9] of 0.501 µM, an IC (TGI) [4] of 3.72 µM and a pIC50 [6] of over 6.00. The pIC50 (BUD-8 human fibroblast) was over 6.00.
Work on `CCCCCCCCCCCCOC[C@@]12O[C@@H](CN3CCCCCC3)[C@@H](O)[C@@H]1OC(C)(C)O2` [Id, 2,3-O-Isopropylidene-6-deoxy-6-(1-hexamethyleneimino)-1-O-dodecyl-α-L-xylo-2-hexulofuranose] yielded a pIC50 [1] of over 6.00, a CC50 [4] of 10.7 µM and a GI50 [4, 8] of 3.87 µM. It also gave a GI50 [4, 9] of 1.82 µM, an IC (TGI) [4] of 4.57 µM and a pIC50 [6] of over 5.52. It also gave a pIC50 (BUD-8 human fibroblast) of over 5.52.

Source: patent publication US5637570A, “Disubstituted and trisubstituted derivatives of 2,3:4,6-di-O-isopropylidene-α-L-xylo-2-hexulofuranosonic acid having anti-cancer, anti-inflammatory and anti-proliferative activity” (Chemora Pharmochem, priority 1995, dated 1997)
